Reference: patent US11000033B2, “Ketone or oxime compound, and herbicide” (NISSAN CHEMICAL CORPORATION, priority 2014, dated 2021)

Columns and labels:
Assay type in all cases: in vivo
[1] = system: Echinochloa oryzacola Vasing.; test: Test Example 1: herbicidal activity, application before weed generation in submerged conditions (symbol A); conditions: application herbicide amount 320 g/ha
Outline: (§1)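 Flooded alluvial soil (4 cm water) was mixed-sown with the three weed species, and 2.5-leaf rice seedlings were transplanted. On sowing day, a water-diluted emulsion at a predetermined rate was applied to the water surface. After 3 weeks in a 25–30 °C greenhouse, effect was scored 0–5.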

Scirpus juncoides = test: Test Example 1: herbicidal activity, application before weed generation in submerged conditions (symbol B); conditions: application herbicide amount 320 g/ha
Outline: as §1

Monochoria vaginalis = test: Test Example 2: herbicidal activity, application during weed generation in submerged conditions (symbol C); conditions: Table 23; application herbicide amount 320 g/ha; grade 0-5 by criteria of Test Example 1
Outline: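 Submerged alluvial soil (4 cm) sown with mixed seed; greenhouse 25–30° C. 1–2 leaf: diluted emulsion onto water surface, preset dose. Visual score, 3 wk.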

Leptochloa chinensis = test: Test Example 3: herbicidal effect by foliage application, Wagner pot (symbol D); conditions: application herbicide amount 320 g/ha
Outline: (§2)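 Steps: fill pot with alluvial soil; add water to 0.1–0.5 cm depth; sow weed and rice seed; grow 14 days at 25–30 °C; spray diluted emulsion over the leaves; rate effect after 3 weeks.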

Cyperus difformis = test: Test Example 3: herbicidal effect by foliage application, Wagner pot (symbol E); conditions: application herbicide amount 320 g/ha
Outline: as §2

Digitaria ciliaris [2] = test: Test Example 4: herbicidal effect by soil treatment (symbol F); conditions: application herbicide amount 320 g/ha
Outline: (§3)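 Seeds were sown in sterilized diluvial soil, covered with about 1.5 cm of soil, and the soil surface was sprayed with a water-diluted emulsion of the compound at a predetermined rate. Plants grew in a greenhouse at 25° C. to 30° C.; effects were scored visually 3 weeks after application.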

Setaria viridis [3] = test: Test Example 4: herbicidal effect by soil treatment (symbol G); conditions: application herbicide amount 320 g/ha
Outline: as §3

[4] = system: Echinochloa crus-galli var. crus-galli; test: Test Example 4: herbicidal effect by soil treatment (symbol H); conditions: application herbicide amount 320 g/ha
Outline: as §3

Veronica persica = test: Test Example 4: herbicidal effect by soil treatment (symbol R); conditions: application herbicide amount 320 g/ha
Outline: as §3

beet = test: Test Example 4: effect on crop by soil treatment (symbol f); conditions: application herbicide amount 320 g/ha
Outline: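 Greenhouse culture at 25° C. to 30° C. followed sowing of seed in spots on sterilized diluvial soil with a soil cover close to 1.5 cm thick.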

Digitaria ciliaris [5] = test: Test Example 5: herbicidal effect by foliage application, plastic box (symbol F); conditions: 320 g/ha, 3 weeks after application
Outline: (§4)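 Effect is rated 3 weeks after a foliar spray of water-diluted emulsion concentrate at a predetermined herbicide amount. Plants had grown 14 days in a 25° C. to 30° C. greenhouse from seed in sterilized diluvial soil.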

Setaria viridis [6] = test: Test Example 5: herbicidal effect by foliage application, plastic box (symbol G); conditions: 320 g/ha, 3 weeks after application
Outline: as §4

Avena fatua = test: Test Example 5: herbicidal effect by foliage application, plastic box (symbol I); conditions: 320 g/ha, 3 weeks after application
Outline: as §4

Stellaria media = test: Test Example 5: herbicidal effect by foliage application, plastic box (symbol P); conditions: 320 g/ha, 3 weeks after application
Outline: as §4

Row | Structure (SMILES) | Herbicidal effect grade, A: Echinochloa oryzacola Vasing. [1] | Herbicidal effect grade, B: Scirpus juncoides (Scirpus juncoides) | Herbicidal effect grade, C: Monochoria vaginalis (Monochoria vaginalis) | herbicidal effect on D (Leptochloa chinensis), grade 0-5 (Leptochloa chinensis) | herbicidal effect on E, grade 0-5 (Cyperus difformis) | Herbicidal effect grade, F: Digitaria ciliaris (Digitaria ciliaris [2]) | Herbicidal effect grade, G: Setaria viridis (Setaria viridis [3]) | Herbicidal effect grade, H: Echinochloa crus-galli var. crus-galli [4] | Herbicidal effect grade, R: Veronica persica (Veronica persica) | Effect on crop grade, f: beet (beet) | F: Digitaria ciliaris, herbicidal effect (criteria of Test Example 1) (Digitaria ciliaris [5]) | G: Setaria viridis, herbicidal effect (criteria of Test Example 1) (Setaria viridis [6]) | I: Avena fatua, herbicidal effect (criteria of Test Example 1) (Avena fatua) | P: Stellaria media, herbicidal effect (criteria of Test Example 1) (Stellaria media)
1 | CON=C(C)CC1CC(O)=C(c2c(C)cc(-c3ccccc3)cc2OC)C1=O (stereo not shown) [6-099] | 5 (Herbicidal ratio of 90% or more (almost completely withered)) | 5 (Herbicidal ratio of 90% or more (almost completely withered)) | 5 (Herbicidal ratio of 90% or more (almost completely withered)) | 5 (Herbicidal ratio of 90% or more (almost completely withered)) | 5 (Herbicidal ratio of 90% or more (almost completely withered)) | 5 (Herbicidal ratio of 90% or more (almost completely withered)) | 5 (Herbicidal ratio of 90% or more (almost completely withered)) | 5 (Herbicidal ratio of 90% or more (almost completely withered)) | 4 (Herbicidal ratio of 70% or higher and lower than 90%) | 2 (Herbicidal ratio of 20% or higher and lower than 40%) | 5 (Herbicidal ratio of 90% or more (almost completely withered)) | 5 (Herbicidal ratio of 90% or more (almost completely withered)) | 5 (Herbicidal ratio of 90% or more (almost completely withered)) | 4 (Herbicidal ratio of 70% or higher and lower than 90%)
2 | CON=C(C)CC1CC(OC(=O)COc2ccccc2)=C(c2c(C)cc(-c3ccccc3)cc2OC)C1=O (stereo not shown) [6-100] | 5 (Herbicidal ratio of 90% or more (almost completely withered)) | 5 (Herbicidal ratio of 90% or more (almost completely withered)) | 5 (Herbicidal ratio of 90% or more (almost completely withered)) | 5 (Herbicidal ratio of 90% or more (almost completely withered)) | 5 (Herbicidal ratio of 90% or more (almost completely withered)) | 5 (Herbicidal ratio of 90% or more (almost completely withered)) | 5 (Herbicidal ratio of 90% or more (almost completely withered)) | 5 (Herbicidal ratio of 90% or more (almost completely withered)) | 5 (Herbicidal ratio of 90% or more (almost completely withered)) | 0 (Herbicidal ratio of 5% or lower (almost no effect)) | 5 (Herbicidal ratio of 90% or more (almost completely withered)) | 5 (Herbicidal ratio of 90% or more (almost completely withered)) | 5 (Herbicidal ratio of 90% or more (almost completely withered)) | 3 (Herbicidal ratio of 40% or higher and lower than 70%)
3 | CON=C(C)CC1CC(O)=C(c2c(OC)cc(C)cc2OC)C1=O (stereo not shown) [6-103] | 5 (Herbicidal ratio of 90% or more (almost completely withered)) | 0 (Herbicidal ratio of 5% or lower (almost no effect)) | 0 (Herbicidal ratio of 5% or lower (almost no effect)) | 5 (Herbicidal ratio of 90% or more (almost completely withered)) | 5 (Herbicidal ratio of 90% or more (almost completely withered)) | 5 (Herbicidal ratio of 90% or more (almost completely withered)) | 5 (Herbicidal ratio of 90% or more (almost completely withered)) | 5 (Herbicidal ratio of 90% or more (almost completely withered)) | 0 (Herbicidal ratio of 5% or lower (almost no effect)) | 0 (Herbicidal ratio of 5% or lower (almost no effect)) | 5 (Herbicidal ratio of 90% or more (almost completely withered)) | 5 (Herbicidal ratio of 90% or more (almost completely withered)) | 5 (Herbicidal ratio of 90% or more (almost completely withered)) | 1 (Herbicidal ratio of 5% or higher and lower than 20%)
4 | CON=C(C)CC1CC(O)=C(c2c(C)cccc2C)C1=O (stereo not shown) [6-112] | 5 (Herbicidal ratio of 90% or more (almost completely withered)) | 0 (Herbicidal ratio of 5% or lower (almost no effect)) | 0 (Herbicidal ratio of 5% or lower (almost no effect)) | 5 (Herbicidal ratio of 90% or more (almost completely withered)) | 4 (Herbicidal ratio of 70% or higher and lower than 90%) | 5 (Herbicidal ratio of 90% or more (almost completely withered)) | 5 (Herbicidal ratio of 90% or more (almost completely withered)) | 5 (Herbicidal ratio of 90% or more (almost completely withered)) | 0 (Herbicidal ratio of 5% or lower (almost no effect)) | 0 (Herbicidal ratio of 5% or lower (almost no effect)) | 5 (Herbicidal ratio of 90% or more (almost completely withered)) | 5 (Herbicidal ratio of 90% or more (almost completely withered)) | 5 (Herbicidal ratio of 90% or more (almost completely withered)) | 1 (Herbicidal ratio of 5% or higher and lower than 20%)
5 | CON=C(C)C(C)C1CC(O)=C(c2c(C)cc(Br)cc2OC)C1=O (stereo not shown) [6-113] | 4 (Herbicidal ratio of 70% or higher and lower than 90%) | 0 (Herbicidal ratio of 5% or lower (almost no effect)) | 3 (Herbicidal ratio of 40% or higher and lower than 70%) | 5 (Herbicidal ratio of 90% or more (almost completely withered)) | 5 (Herbicidal ratio of 90% or more (almost completely withered)) | 5 (Herbicidal ratio of 90% or more (almost completely withered)) | 5 (Herbicidal ratio of 90% or more (almost completely withered)) | 5 (Herbicidal ratio of 90% or more (almost completely withered)) | 0 (Herbicidal ratio of 5% or lower (almost no effect)) | 0 (Herbicidal ratio of 5% or lower (almost no effect)) | 5 (Herbicidal ratio of 90% or more (almost completely withered)) | 5 (Herbicidal ratio of 90% or more (almost completely withered)) | 5 (Herbicidal ratio of 90% or more (almost completely withered)) | 0 (Herbicidal ratio of 5% or lower (almost no effect))
